# Measurements taken from US20200131142A1, “FARNESOID X RECEPTOR AGONISTS AND USES THEREOF” (Metacrine, Inc., priority 2017, published 2020).
# Target: T1, hFXR (Homo sapiens, UniProt Q96RI1)
# T1 construct: expressed in transfected cells; host or cells: CV-1 cells
# T1 sequence (Q96RI1 1-486): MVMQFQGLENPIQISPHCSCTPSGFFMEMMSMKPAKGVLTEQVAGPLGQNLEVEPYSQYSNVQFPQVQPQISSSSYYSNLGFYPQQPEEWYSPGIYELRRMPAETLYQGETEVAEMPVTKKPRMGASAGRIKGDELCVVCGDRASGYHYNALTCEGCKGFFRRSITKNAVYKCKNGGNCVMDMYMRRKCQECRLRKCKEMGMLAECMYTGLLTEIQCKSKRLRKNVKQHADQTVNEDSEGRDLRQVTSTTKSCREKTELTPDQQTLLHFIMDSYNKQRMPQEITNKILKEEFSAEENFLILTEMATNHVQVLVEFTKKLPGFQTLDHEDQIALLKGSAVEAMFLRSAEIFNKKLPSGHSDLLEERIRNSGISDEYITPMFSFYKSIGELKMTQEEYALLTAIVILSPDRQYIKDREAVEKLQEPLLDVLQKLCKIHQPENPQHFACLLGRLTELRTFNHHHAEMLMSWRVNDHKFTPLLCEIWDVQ
# T1 sequence (P19793 1-462 partner): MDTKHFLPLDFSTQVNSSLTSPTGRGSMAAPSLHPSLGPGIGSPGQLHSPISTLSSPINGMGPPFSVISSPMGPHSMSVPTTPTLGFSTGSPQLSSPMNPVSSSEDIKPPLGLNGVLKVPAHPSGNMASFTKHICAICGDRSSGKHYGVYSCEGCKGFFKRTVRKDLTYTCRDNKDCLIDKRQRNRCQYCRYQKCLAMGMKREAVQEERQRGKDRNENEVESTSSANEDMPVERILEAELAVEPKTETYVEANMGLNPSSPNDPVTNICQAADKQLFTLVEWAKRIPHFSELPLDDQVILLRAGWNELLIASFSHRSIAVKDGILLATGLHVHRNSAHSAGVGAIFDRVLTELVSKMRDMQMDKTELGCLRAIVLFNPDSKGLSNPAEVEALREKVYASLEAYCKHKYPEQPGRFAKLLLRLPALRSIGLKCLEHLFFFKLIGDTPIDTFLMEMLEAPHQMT
# Assay: In Vitro FXR Assay (TK): hFXR/hRXR TK-ECRE-luc reporter in transfected CV-1 cells
# Format: cell-based
# Details: 18 hrs incubation, luminescence, compounds with maximum efficacy <25% of the Fexarmine control classified as '+'
# Experimental: Example B-1: In Vitro FXR Assay (TK)
# CV-1 cells were seeded at a density of 2,000,000 cells in a T175 flask with DMEM+10% charcoal double-stripped FBS and incubated at 37° C. in 5% CO2 for 18 h (O/N).
# After 18 h of incubation, the medium in the T175 flask was changed with fresh DMEM+10% charcoal super-stripped serum. In a polypropylene tube, 2500 μL OptiMEM (Life Technologies, Cat #31985-062) was combined with expression plasmids for hFXR, hRXR, TK-ECRE-luc and pCMX-YFP. The tube was then briefly vortexed and incubated at room temperature for 5 minutes. Transfection reagent (X-tremeGENE HP from Roche, Cat #06 366 236 001) was added to the OptiMEM/plasmid mixture vortexed and incubated at room temperature for 20 minutes. Following incubation, the transfection reagent/DNA mixture complex was added to cells in the T175 flask and the cells were incubated at 37° C. in 5% CO2 for 18 h (O/N).
# Compounds were serially diluted in DMSO and added to transfected CV-1 cells. The cells were then incubated for 18 hrs. The next day cells were lysed and examined for luminescence.
row,EC50,SMILES
1,≥ 1 µM,"COc1ccc([C@H]2CC[C@H](CN(c3cccc(-c4cnc(C5CC5)s4)c3)C(=O)[C@H]3CC[C@H](N(C)C)CC3)CC2)cc1C [Compound 13, trans-N-(3-(2-Cyclopropylthiazol-5-yl)phenyl)-4-(dimethylamino)-N-((trans-4-(4-methoxy-3-methylphenyl)cyclohexyl)methyl) cyclohexanecarboxamide]"
2,≤ 0.25 µM,"COc1ccc([C@H]2CC[C@H](CN(c3cccc(-c4cnc(C5CC5)s4)c3)C(=O)[C@H]3CC[C@H](O)CC3)CC2)cc1C [Compound 7, trans-N-(3-(2-Cyclopropylthiazol-5-yl)phenyl)-4-hydroxy-N-((trans-4-(4-methoxy-3-methylphenyl)cyclohexyl)methyl) cyclohexanecarboxamide]"
3,0.25 to 1 µM,"COc1ccc([C@H]2CC[C@H](CN(c3cccc(NCc4nccs4)c3)C(=O)[C@H]3CC[C@H](O)CC3)CC2)cc1C [Compound 15, trans-4-Hydroxy-N-((trans-4-(4-methoxy-3-methylphenyl)cyclohexyl)methyl)-N-(3-((thiazol-2-ylmethyl)amino)phenyl)cyclohexanecarboxamide]"
4,0.25 to 1 µM,"COc1ccc([C@H]2CC[C@H](CN(c3cccc(-c4cnc(C(N)=O)s4)c3)C(=O)[C@H]3CC[C@H](O)CC3)CC2)cc1C [Compound 7.25, 5-(3-(trans-4-Hydroxy-N-((trans-4-(4-methoxy-3-methylphenyl)cyclohexyl)methyl)cyclohexanecarboxamido)phenyl)thiazole-2-carboxamide]"
5,≤ 0.25 µM,"COc1ccc([C@H]2CC[C@H](CN(c3cccc(-c4cnc(C5CC5)s4)c3)C(=O)[C@H]3CC[C@H](O)CC3)CC2)nc1C#N [Compound 9.21, trans-N-((trans-4-(6-Cyano-5-methoxypyridin-2-yl)cyclohexyl)methyl)-N-(3-(2-cyclopropylthiazol-5-yl)phenyl)-4-hydroxycyclohexanecarboxamide]"
6,≤ 0.25 µM,"COc1ncc(-c2cccc(N(C[C@H]3CC[C@H](c4ccc(OC)c(C)n4)CC3)C(=O)[C@H]3CC[C@H](O)CC3)c2)s1 [Compound 9.02, trans-4-Hydroxy-N-((trans-4-(5-methoxy-6-methylpyridin-2-yl)cyclohexyl)methyl)-N-(3-(2-methoxythiazol-5-yl)phenyl)cyclohexanecarboxamide]"
7,≤ 0.25 µM,"COc1ccc([C@H]2CC[C@H](CN(c3cccc(-c4cnc(C5CC5)s4)c3)C(=O)[C@H]3CC[C@H](O)CC3)CC2)cc1Cl [Compound 9.03, trans-N-((trans-4-(3-Chloro-4-methoxyphenyl)cyclohexyl)methyl)-N-(3-(2-cyclopropylthiazol-5-yl)phenyl)-4-hydroxycyclohexanecarboxamide]"
8,≤ 0.25 µM,"COc1ncc(-c2cccc(N(C[C@H]3CC[C@H](c4cnc(OC)c(Cl)c4)CC3)C(=O)[C@H]3CC[C@H](O)CC3)c2)s1 [Compound 9.04, trans-N-((trans-4-(5-Chloro-6-methoxypyridin-3-yl)cyclohexyl)methyl)-4-hydroxy-N-(3-(2-methoxythiazol-5-yl)phenyl)cyclohexanecarboxamide]"
9,0.25 to 1 µM,"COC(=O)c1ncc(-c2cccc(N(C[C@H]3CC[C@H](c4ccc(OC)c(C)c4)CC3)C(=O)[C@H]3CC[C@H](O)CC3)c2)s1 [Compound 7.27, Methyl 5-(3-(trans-4-hydroxy-N-((trans-4-(4-methoxy-3-methylphenyl)cyclohexyl)methyl)cyclohexanecarboxamido)phenyl)thiazole-2-carboxylate]"
10,0.25 to 1 µM,"COc1cnc([C@H]2CC[C@H](CN(c3cccc(-c4cnc(C5CC5)s4)c3)C(=O)[C@H]3CC[C@H](O)CC3)CC2)cc1C [Compound 9.24, trans-N-(3-(2-Cyclopropylthiazol-5-yl)phenyl)-4-hydroxy-N-((trans-4-(5-methoxy-4-methylpyridin-2-yl)cyclohexyl)methyl)cyclohexanecarboxamide]"
11,≤ 0.25 µM,"CC#Cc1ncc(-c2cccc(N(C[C@H]3CC[C@H](c4ccc(OC)c(C)c4)CC3)C(=O)[C@H]3CC[C@H](O)CC3)c2)s1 [Compound 7.21, trans-4-Hydroxy-N-((trans-4-(4-methoxy-3-methylphenyl)cyclohexyl)methyl)-N-(3-(2-(prop-1-yn-1-yl)thiazol-5-yl)phenyl)cyclohexanecarboxamide]"
12,≤ 0.25 µM,"COc1ccc([C@H]2CC[C@H](CN(c3cccc(-c4cnc(C(C)(C)C)s4)c3)C(=O)[C@H]3CC[C@H](O)CC3)CC2)cc1C [Compound 7.07, trans-N-(3-(2-(tert-Butyl)thiazol-5-yl)phenyl)-4-hydroxy-N-((trans-4-(4-methoxy-3-methylphenyl)cyclohexyl)methyl) cyclohexanecarboxamide]"
13,≤ 0.25 µM,"COc1ccc([C@H]2CC[C@H](CN(c3cccc(-c4cnc(C5CC5)s4)c3)C(=O)[C@H]3CC[C@H](O)CC3)CC2)cc1C#N [Compound 7.29, trans-N-((trans-4-(3-Cyano-4-methoxyphenyl)cyclohexyl)methyl)-N-(3-(2-cyclopropylthiazol-5-yl)phenyl)-4-hydroxycyclohexanecarboxamide]"
14,0.25 to 1 µM,"Cn1ccc2cc([C@H]3CC[C@H](CN(c4cccc(-c5cnc(C6CC6)s5)c4)C(=O)[C@H]4CC[C@H](O)CC4)CC3)ncc21 [Compound 9.17, trans-N-(3-(2-Cyclopropylthiazol-5-yl)phenyl)-4-hydroyx-N-((trans-4-(1-methyl-1H-pyrrolo[2,3-c]pyridin-5-yl)cyclohexyl)methyl)cyclohexanecarboxamide]"
15,≤ 0.25 µM,"COc1ncc(-c2cccc(N(C[C@H]3CC[C@H](c4ccc5c(c4)OCO5)CC3)C(=O)[C@H]3CC[C@H](O)CC3)c2)s1 [Compound 9.14, trans-N-((trans-4-(Benzo[d][1,3]dioxol-5-yl)cyclohexyl)methyl)-4-hydroxy-N-(3-(2-methoxythiazol-5-yl)phenyl)cyclohexanecarboxamide]"
16,≥ 1 µM,"COc1ncc(-c2cccc(N(C[C@H]3CC[C@@H](c4ccc(OC)c(C)c4)CC3)C(=O)[C@H]3CC[C@H](O)CC3)c2)s1 [Compound 2, trans-4-Hydroxy-N-((cis-4-(4-methoxy-3-methylphenyl)cyclohexyl)methyl)-N-(3-(2-methoxythiazol-5-yl)phenyl)cyclohexanecarboxamide]"
17,0.25 to 1 µM,"COc1ccc([C@H]2CC[C@H](CN(c3cccc(-c4cnc(S(C)(=O)=O)s4)c3)C(=O)[C@H]3CC[C@H](O)CC3)CC2)cc1C [Compound 7.12, trans-4-Hydroxy-N-((trans-4-(4-methoxy-3-methtylphenyl)cyclohexyl)methyl)-N-(3-(2-(methylsulfonyl)thiazol-5-yl)phenyl)cyclohexanecarboxamide]"
18,0.25 to 1 µM,"Cc1cc([C@H]2CC[C@H](CN(c3cccc(-c4cnc(C5CC5)s4)c3)C(=O)[C@H]3CC[C@H](O)CC3)CC2)ccc1N(C)S(C)(=O)=O [Compound 9.15, trans-N-(3-(2-Cyclopropylthiazol-5-yl)phenyl)-4-hydroxy-N-((trans-4-(3-methyl-4-(N-methylmethylsulfonamido)phenyl)cyclohexyl)methyl)cyclohexanecarboxamide]"
19,≤ 0.25 µM,"COc1ccc([C@H]2CC[C@H](CN(c3cc(-c4cnc(C(C)C)s4)ccn3)C(=O)[C@H]3CC[C@H](O)CC3)CC2)cc1C [Compound 9.28, trans-4-Hydroxy-N-(4-(2-isoporpylthiazol-5-yl)pyridin-2-yl)-N-((trans-4-(4-methoxy-3-methylphenyl)cyclohexyl)methyl) cyclohexanecarboxamide]"
20,≤ 0.25 µM,"COc1ncc(-c2cccc(N(C[C@H]3CC[C@H](c4ccc(OC)c(C)c4)CC3)C(=O)C3CCCCC3)c2)s1 [Compound 1.01, N-((trans-4-(4-Methoxy-3-methylphenyl)cyclohexyl)methyl)-N-(3-(2-methoxythiazol-5-yl)phenyl)cyclohexanecarboxamide]"
